From PMC12282092, “Discovery of a non-nucleoside inhibitor that binds to a novel site in the palm domain of the respiratory syncytial virus RNA-dependent RNA polymerase” (Journal of Virology, 2025)
Read-outs that look alike come from different tables or passages of the source.

Experiments:
[1] = target: T1, RSV L+P (Human respiratory syncytial virus A, UniProt P28887); test: Pyrophosphate luminescence detection assay, full-length RSV L+P; format: biochemical; settings: pyrophosphate luminescence detection assay
T1 construct: Biochemical activity of 1 and 22 against full-length RSV L+P; Twin-Strep-tag (N); made in house; host or cells: Sf9 insect cells (baculovirus, pFastBac Dual)
T1 sequence (P03421 whole entry): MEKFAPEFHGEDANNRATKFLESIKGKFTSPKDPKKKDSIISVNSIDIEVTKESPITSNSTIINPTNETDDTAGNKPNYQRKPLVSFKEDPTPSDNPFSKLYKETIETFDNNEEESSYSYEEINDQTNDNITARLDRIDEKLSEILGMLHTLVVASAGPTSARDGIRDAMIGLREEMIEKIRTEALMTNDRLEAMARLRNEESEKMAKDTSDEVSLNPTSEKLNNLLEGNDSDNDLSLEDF
T1 sequence (P28887 whole entry): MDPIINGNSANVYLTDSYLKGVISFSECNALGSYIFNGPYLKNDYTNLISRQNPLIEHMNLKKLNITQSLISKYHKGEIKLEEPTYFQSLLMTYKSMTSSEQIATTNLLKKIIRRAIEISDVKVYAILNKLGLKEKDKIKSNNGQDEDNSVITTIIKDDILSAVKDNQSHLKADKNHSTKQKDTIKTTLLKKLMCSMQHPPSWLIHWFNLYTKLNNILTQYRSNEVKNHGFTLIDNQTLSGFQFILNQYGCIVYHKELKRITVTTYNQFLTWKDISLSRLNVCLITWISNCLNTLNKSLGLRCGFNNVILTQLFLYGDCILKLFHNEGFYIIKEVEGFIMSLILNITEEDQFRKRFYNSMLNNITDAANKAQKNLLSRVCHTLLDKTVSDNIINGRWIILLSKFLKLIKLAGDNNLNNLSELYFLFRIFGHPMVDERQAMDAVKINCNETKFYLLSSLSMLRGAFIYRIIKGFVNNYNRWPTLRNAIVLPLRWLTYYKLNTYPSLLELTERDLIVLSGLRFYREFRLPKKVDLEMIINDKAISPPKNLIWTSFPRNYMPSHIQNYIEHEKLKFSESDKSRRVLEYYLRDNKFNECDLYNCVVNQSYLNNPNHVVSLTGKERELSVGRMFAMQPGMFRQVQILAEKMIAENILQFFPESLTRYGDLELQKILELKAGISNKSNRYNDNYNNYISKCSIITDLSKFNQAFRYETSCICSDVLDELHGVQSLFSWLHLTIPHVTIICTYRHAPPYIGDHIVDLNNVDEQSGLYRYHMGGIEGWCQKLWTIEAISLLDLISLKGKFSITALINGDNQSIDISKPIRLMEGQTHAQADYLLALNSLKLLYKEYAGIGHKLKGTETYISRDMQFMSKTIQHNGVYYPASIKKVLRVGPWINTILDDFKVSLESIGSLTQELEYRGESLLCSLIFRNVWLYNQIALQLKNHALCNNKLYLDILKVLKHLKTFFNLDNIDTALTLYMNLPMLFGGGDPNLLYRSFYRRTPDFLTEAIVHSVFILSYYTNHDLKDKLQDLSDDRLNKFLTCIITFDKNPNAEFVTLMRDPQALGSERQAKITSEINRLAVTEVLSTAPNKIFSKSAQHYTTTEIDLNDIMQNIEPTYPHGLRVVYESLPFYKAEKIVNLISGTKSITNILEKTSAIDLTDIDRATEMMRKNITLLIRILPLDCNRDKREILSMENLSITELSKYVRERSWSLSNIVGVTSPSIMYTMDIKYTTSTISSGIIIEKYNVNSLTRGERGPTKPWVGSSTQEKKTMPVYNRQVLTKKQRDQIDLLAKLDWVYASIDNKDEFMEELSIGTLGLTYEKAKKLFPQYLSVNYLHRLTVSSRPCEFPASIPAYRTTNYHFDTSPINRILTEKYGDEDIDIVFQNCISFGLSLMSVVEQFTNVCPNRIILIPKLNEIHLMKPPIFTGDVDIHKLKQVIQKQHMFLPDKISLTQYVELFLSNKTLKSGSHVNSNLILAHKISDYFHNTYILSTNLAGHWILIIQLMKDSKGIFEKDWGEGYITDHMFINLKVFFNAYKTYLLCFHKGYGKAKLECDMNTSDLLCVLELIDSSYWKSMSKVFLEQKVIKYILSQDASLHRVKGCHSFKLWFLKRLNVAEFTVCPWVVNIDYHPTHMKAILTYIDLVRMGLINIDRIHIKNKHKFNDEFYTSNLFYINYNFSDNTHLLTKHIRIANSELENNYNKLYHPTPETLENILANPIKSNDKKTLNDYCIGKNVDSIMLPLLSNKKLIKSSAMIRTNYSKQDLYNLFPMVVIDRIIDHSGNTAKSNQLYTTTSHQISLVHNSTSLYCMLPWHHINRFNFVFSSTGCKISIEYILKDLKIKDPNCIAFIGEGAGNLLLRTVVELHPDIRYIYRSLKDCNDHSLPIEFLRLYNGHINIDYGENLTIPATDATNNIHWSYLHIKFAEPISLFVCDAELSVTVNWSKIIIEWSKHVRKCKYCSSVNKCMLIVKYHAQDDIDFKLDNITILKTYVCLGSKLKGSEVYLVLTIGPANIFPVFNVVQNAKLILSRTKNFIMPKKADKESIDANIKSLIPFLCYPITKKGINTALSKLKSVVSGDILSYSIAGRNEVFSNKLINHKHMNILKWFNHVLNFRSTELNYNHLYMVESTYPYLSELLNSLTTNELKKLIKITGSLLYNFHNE
Protocol: Working solutions (3×) of RSV L+P (60 nM), substrate (30 µM each of GTP, CTP, UTP, 300 µM ATPαS [Jena Bioscience], 15 µM RNA template TrC-25), detection reagents (6 nM Luciferase, 900 µM luciferin, 3 U/µL ATP Sulfurylase [BioVision], 15 µM adenosine phosphosulfate [APS], 3 mM coenzyme A), were prepared in complete assay buffer. Compounds were dissolved in dimethyl sulfoxide (DMSO) and dispensed to white, 1536-well cyclic olefin copolymer (COC) plates (Corning, 9145BC) using an Echo Acoustic Liquid Handler (Beckman Coulter, San Jose, CA). Substrate (1 µL) and detection reagents (1 µL) were dispensed using a Multidrop Combi Dispenser (ThermoFisher, Waltham, MA), followed by enzyme (1 µL) to initiate the reaction. Final screening concentrations were 20 nM RSV L+P, 10 µM GTP/CTP/UTP, 100 µM ATPαS, 5 µM TrC-25, 2 nM Luciferase (Promega), 300 µM luciferin (Promega), 1 U/µL ATP sulfurylase, 5 µM APS, and 1 mM CoA. […] Luminescence was detected using the PHERAStar FSX (BMG Labtech, Ortenberg, Germany).

[2] = target: T1, RSV L+P; test: SPR assay; format: binding; settings: 25°C
Protocol: A Biacore Series S SA (Cytiva) chip is first derivatized by a 60 s injection of 50 µg/mL Tris NTA-biotin (synthesized in-house). The chip was further conditioned by a 60 s injection of 350 mM EDTA (Cytiva, 28995043) followed by a 60 s injection of 0.5 mM NiCl2 (Cytiva, 28995043). Purified human, recombinant His-tagged RSV L+P protein (C-terminal 8× His) was captured via a 1,200 s injection at 30 µg/mL to obtain immobilization levels of 8,000–9,000 RU. The surface was then blocked with a 60 s injection of 100 µM PEG-biotin (Thermo Scientific). The experiments were performed at 25°C, using a Biacore 8K+ (Cytiva) and running buffer: 10 mM HEPES, 300 mM NaCl, 10 mM MgCl2, pH 7.4, 5% glycerol, 2% DMSO, 0.005% p20, 0.5 mM TCEP. […] Reference and buffer-blank subtracted data were analyzed with the Biacore 8K Insight Evaluation Software and fit to a 1:1 Langmuir model to obtain KD values and binding kinetics.

[3] = APC-126 cytotoxicity assay (CellTiter-Glo); format: cell-based; settings: hamster; APC-126, 72 h; read-out: Replicon CC50
Protocol: (§1) A proprietary BHK-based cell line, APC-126, harboring the RSV replicon, was obtained from Apath (New York, USA) and cultured in DMEM/Ham’s F-12 50/50, supplemented with 10% (vol/vol) FBS (Gibco), 1% (vol/vol) penicillin-streptomycin (Gibco), 1% (vol/vol) MEM non-essential amino acids (Gibco), 5% (vol/vol) Tryptose Phosphate Broth (Sigma-Aldrich), and 10 µg/mL blasticidin (Invitrogen) at 37°C in a humidified 5% CO2 incubator ([36]). Cells were plated (3,500 cells/well) in white, 96-well, clear-bottom plates (Corning) and incubated for 24 h. Compound serial dilutions (9 point, threefold) were prepared in DMSO and diluted 10-fold in culture media before treating cells (final [DMSO] = 1% [vol/vol]). […] In parallel, cytotoxicity was measured using CellTiter-Glo (Promega) under the same conditions. […] Figures were prepared with GraphPad Prism.

[4] = Metabolic stability in liver microsomes; settings: in vitro intrinsic clearance in human liver microsomes, n = 1
[5] = system: RSV-A/A2; test: microbe, parasite or virus in culture; format: cell-based; settings: human respiratory syncytial virus; RSV-A/A2, HeLa cells, RT-qPCR
[6] = target: human mitochondrial RNA polymerase (POLRMT) (Homo sapiens, UniProt O00411); test: POLRMT assay
[7] = target: T1, RSV L+P; test: De novo RNA synthesis assay (TrC-14, +3 site); format: biochemical; settings: TrC-14 template
Protocol: The reaction was quenched by an equal volume of gel loading buffer consisting of 90% formamide and 50 mM EDTA. Samples were heated to 95°C for 5 min, resolved on a 22.5% polyacrylamide urea sequencing gel at 80 W, and then transferred to Whatman cellulose chromatography paper (Millipore Sigma). The gel was dried for 1 h on a gel dryer (Bio-Rad), exposed to a phosphor screen, and imaged using a Typhoon phosphorimager (GE Healthcare).

[8] = system: rgRSV224 virus (RSV A2) in HeLa cells; test: HeLa cell rgRSV224 eGFP reporter viral proliferation assay; format: cell-based; settings: RSV eGFP phenotypic assay in HeLa cells; for EC50: MOI 1, 72 h, n ≥ 2, read-out: Cellular EC50
Protocol: (§2) Compound serial dilutions (9 point, fourfold) were prepared in DMSO, and 200 nL was transferred to black, 384-well, clear-bottom microtiter plates (Corning, Amsterdam, The Netherlands) via acoustic drop ejection ([36], [50]). […] Then, 20 µL of a HeLa cell suspension (3,000 cells/well) was added with a Multidrop Combi, and cells were incubated at 37°C in a 5% CO2 atmosphere. After 72 h, GFP expression was quantified using an EnVision Multimode Plate Reader (Perkin Elmer, Zaventem, Belgium), and data were normalized to untreated and media-only (no virus) controls. Cytotoxicity was determined in parallel using the ATPlite kit (Perkin Elmer, Zaventem, Belgium). Luminescence was measured in white, 384-well microtiter plates (Corning) on a ViewLux uHTS Microplate Imager apparatus (PerkinElmer, Zaventem, Belgium), and cellular ATP content was quantified by normalizing to untreated and media-only (no cell) controls. […] Figures were prepared with GraphPad Prism.

[9] = system: RSV replicon in APC-126 cells; test: APC-126 minireplicon assay; format: cell-based; settings: human respiratory syncytial virus, APC-126, 72 h
Protocol: as §1

[10] = system: RSV-B/Wash/18537; test: microbe, parasite or virus in culture; format: cell-based; settings: human respiratory syncytial virus; RSV-B/Wash/18537, HeLa cells, RT-qPCR
[11] = system: HeLa cells; settings: HeLa cytotoxicity
[12] = system: RSV-B/05_036549; test: microbe, parasite or virus in culture; format: cell-based; settings: human respiratory syncytial virus; RSV-B/05_036549, HeLa cells, RT-qPCR
[13] = in vitro; settings: human
[14] = target: T2, RSV L+P-JNJ-8003 complex (Human respiratory syncytial virus A, UniProt P28887); test: SPR A-B-A competition with capping domain binder JNJ-8003; format: binding; settings: 60 nM JNJ-8003 competitor
T2 construct: a biophysical SPR assay was established using full-length RSV L+P complex; Twin-Strep-tag (N); made in house; host or cells: Sf9 insect cells (baculovirus)
T2 sequence (P28887 whole entry, the tested form may be a part): as the sequence (P28887 whole entry) above
T2 sequence (P03421 whole entry, further chain, the tested form may be a part): as the sequence (P03421 whole entry) above
Protocol: (§3) Here, the competitor was held at a constant concentration (60 nM for JNJ-8003 and 150 nM for JNJ-7184) during baseline acquisition, association, and dissociation of the test compound.
(§4) The Biacore A-B-A injection method was used to assess compound binding competition. RSVpol was immobilized as above. […] Dissociation of any bound 22 was then measured for 500 s in the presence of a competitor. The temperature was 25°C, and the flow rate was kept at 30 µL/min.

[15] = target: T1, RSV L+P; test: Single-nucleotide incorporation (primer extension) assays; format: biochemical; settings: 50 µM 22, primers AC, ACG, ACGA, ACGAG
Protocol: Reactions were initiated by the addition of 100 nM [α-^32P]NTP (3,000 Ci/mmol) tracer and run for an additional 30 min before quenching with an equal volume of gel loading buffer (90% formamide, 50 mM EDTA, 0.05% Xylene Cyanol and Bromophenol Blue). Gel images were obtained and processed as described for the de novo assay, and data were normalized to untreated controls to determine percent inhibition.

[16] = target: T3, RSV L+P-JNJ-7184 complex (Human respiratory syncytial virus A, UniProt P28887); test: SPR A-B-A competition with connector domain binder JNJ-7184; format: binding; settings: 150 nM JNJ-7184 competitor
T3 construct: a biophysical SPR assay was established using full-length RSV L+P complex; Twin-Strep-tag (N); made in house; host or cells: Sf9 insect cells (baculovirus)
Protocol: as §3, §4

[17] = target: T1, RSV L+P; test: Mode of inhibition by progress curve analysis; format: biochemical
Protocol: To determine the mode of inhibition, progress curve analysis was carried out with the full-length complex.

[18] = system: HeLa cells; test: HeLa cytotoxicity assay (ATPlite); settings: HeLa cells
Protocol: as §2

[19] = HeLa cytotoxicity assay (ATPlite); settings: human, HeLa cells
Protocol: as §2

[20] = target: T1, RSV L+P; test: Yonetani-Theorell mutual exclusivity analysis; format: biochemical
Protocol: Here, matrix titrations of the two inhibitors were carried out, and initial rates were determined for each inhibitor combination. Data were fitted to the Yonetani-Theorell equation (Supp. equation S1) to determine the interaction constant, γ. […] When γ > 1, binding is antagonistic, and as γ approaches infinity, the ligands are considered mutually exclusive. Conversely, when γ < 1, binding is synergistic.

[21] = system: RSV-A/Long; test: microbe, parasite or virus in culture; format: cell-based; settings: human respiratory syncytial virus, HeLa cells, RT-qPCR

Molecule `CN1C(=O)C2(CCN(c3cnc(C#N)c(Cl)c3)CC2)c2cc(Br)ccc21` [Compound 22, 5-(5-bromo-1-methyl-2-oxospiro[indoline-3,4'-piperidin]-1'-yl)-3-chloropicolinonitrile] has an IC50 ([1]; full-length RSV L+P, n ≥ 2, read-out: Biochemical IC50) of 0.27 µM, an Emax ([1]; read-out: Biochemical Emax) of 105% and an SPR kd ([2]; immobilized RSV L+P) of 0.0609 s⁻¹. The Kd ([2]; immobilized full-length RSV L+P) was 0.47 µM, the CC50 at 72 h [3] was over 50 µM and the “HLM CLint” value [4] was 10.9 µL/min/mg microsomal protein. For the same molecule, the EC50 [5] was 1.1 µM, the IC50 [6] was over 100 µM and the “maximal inhibition of pppGA formation” value ([7]; +3 site) was 85%. The IC50 ([7]; +3 site, read-out: IC50 of de novo pppGA (pppGpA) formation) was 0.29 µM, the IC50 ([7]; IC50 of 11-mer product) was 0.48 µM and the “maximal inhibition of 11-mer product” value [7] was 71%. For the same molecule, the EC50 [8] was 2.38 µM, the EC50 ([8]; human respiratory syncytial virus, HeLa, 72 h) was 2.28 µM and the Emax ([8]; human respiratory syncytial virus, read-out: Cellular Emax) was 94%. It also gave an EC50 [9] of 2.22 µM, an EC50 [10] of 2.7 µM and a CC50 ([11]; line RSV-A/A2) of over 50 µM. It also gave a CC50 ([11]; line RSV-A/Long) of over 50 µM, a CC50 ([11]; line RSV-B/Wash/18537) of over 50 µM and an EC50 [12] of 1 µM. For the same molecule, the CC50 [13] was over 50 µM, the “SPR ka in the presence of JNJ-8003” value [14] was 119000 M⁻¹ s⁻¹ and the “SPR kd in the presence of JNJ-8003” value [14] was 0.0628 s⁻¹. For the same molecule, the Kd ([14]; read-out: SPR KD in the presence of JNJ-8003) was 0.53 µM, the “inhibition of primer extension, TrC-14 template” value [15] was “inhibited” and the “SPR ka in the presence of JNJ-7184” value [16] was 140000 M⁻¹ s⁻¹. For the same molecule, the “SPR kd in the presence of JNJ-7184” value [16] was 0.0725 s⁻¹, the Kd ([16]; read-out: SPR KD in the presence of JNJ-7184) was 0.52 µM and the “α (mixed model inhibition) with respect to UTP” value ([17]; mixed noncompetitive/uncompetitive) was 0.33 ± 0.27. For the same molecule, the “α with respect to TrC-25 RNA template” value ([17]; noncompetitive) was 1.1 ± 0.6, the “Cytotoxicity Emax” value [18] was 12.8% and the CC50 at 72 h [19] was over 50 µM. For the same molecule, the “Yonetani-Theorell interaction constant γ” value ([20]; 22 titrated with capping domain inhibitor compound 23) was 1.1 ± 0.2, the “Yonetani-Theorell interaction constant γ” value ([20]; 22 titrated with connector domain inhibitor compound 24) was 0.88 ± 0.72 and the EC50 [21] was 0.97 µM.
